Assays:
[1] = in vivo; cited from earlier work
5'-nucleotidase = conditions: Crotalus atrox, pH 7.3

Compound	half-life [1]	Hydrolysis (%) (5'-nucleotidase)
isoprinosine	less than four hours	–
Nc1ncnc2c1ncn2[C@@H]1O[C@H](COP(=O)(O)O)[C@@H](O)[C@H]1O [Adenosine MP, adenosine-5'-monophosphate]	–	86.0
